We go through 5 compounds from US20020058591A1, “Herbicidal compositions” (priority 2000, published 2002).

Holding throughout (type): in vivo
The test system of assay [1] is Avena fatua (AVEFA). The experiment in a line: Example B.1 post-emergence spray, controlled-environment cabinet, minimal irrigation, visual scoring. Conditions: A1 60 g a.i./ha (Genapol LRO 324, sodium lactate 150 g a.i./ha where combined); 14 days after application; 0%=no damage, 100%=all plants dead; 50% rel. humidity. The protocol: (§1) The individual components herbicide, surfactant and humectant with regard to type and application rate as stated in Tables 1-4 were added with stirring to a water application rate of 300 l/ha so that a homogeneous spray mixture was formed. The active substances rimsulfuron and nicosulfuron in the commercially available formulations Cato® WG25 (Du Pont) and Motivell® (BASF) were used for this purpose, respectively. Iodosulfuron-methyl-sodium and mesosulfuron-methyl were added in each case as 20 percent water-dispersible powders. Foramsulfuron was used as 50 percent water-dispersible granules. The surfactants used were Genapol® LRO as 70 percent paste (Clariant) and Synperonic® A7 (Unichema).
(§2) Visual scoring was carried out using a percentage scale of 0%=no damage to 100%=all plants dead.
(§3) Seeds of the harmful plants AVEFA and LOLMU were sown in a sandy loam soil in round pots type 13 in a controlled-environment cabinet and watered slightly. During the entire experiment period, the substrate only received minimal irrigation. A daytime temperature of 18° C. and a nighttime temperature of 16° C. was adhered to, a uniform day length of 16 hours being achieved by additional illumination with sodium vapor lamps (approx. 7000 lux). The relative atmospheric humidity was 50%. […]

For assay [2], the system named is Lolium multiflorum (LOLMU). Described as above. To be noted: A1 60 g a.i./ha (Genapol LRO 324, sodium lactate 150 g a.i./ha where combined); 14 days after application; 0%=no damage, 100%=all plants dead; 50% rel. humidity. Here is the method: as §1, §2, §3
The next assay concerns Bromus tectorum (BROTE). Briefly: Example B.3 post-emergence spray, pots in the open, minimal irrigation, visual scoring. To be noted: A1 10 g a.i./ha (surfactant 300, humectant 300 g a.i./ha where combined), 28 days after application. The protocol: as §1, §2
Seeds of the harmful plant BROTE were sown in a sandy loam soil in round pots type 13 in the open and watered slightly. During the entire experimental period, the substrate only received minimal irrigation. Four weeks after sowing, the plants were treated on a laboratory spray conveyor with spray mixtures of components mesosulfuron-methyl (A1), Genapol® LRO and sodium lactate, A1, Synperonic®A7 and sodium lactate and A1, Genapol® LRO and propylene glycol, the spray mixtures being prepared as in Example A. The water application rate for the spray application of the preparations was 300 l/ha. […]

The test system of assay [3] is Echinochloa crus-galli (ECHCG). The experiment in a line: Example B.2 post-emergence spray, greenhouse, visual scoring. Conditions: 28 days after application. The protocol:
as §1, §2
(§4) Seeds of the harmful plants LOLMU, ALOMY, AVEFA, ECHCG and DIGSA were sown in a sandy loam soil in round pots type 7 in a greenhouse and watered slightly. A daytime temperature of 22 to 24° C. and a nighttime temperature of 16 to 18° C. was adhered to, a uniform day length of 16 hours being achieved by additional illumination with sodium vapor lamps (approx. 7000 lux). The relative atmospheric humidity was 60 to 80%. Two weeks after sowing, the plants were treated on a laboratory spray conveyor with the spray mixtures of rimsulfuron (A2), nicosulfuron (A3), iodosulfuron-methyl sodium (A4) and foramsulfuron (A5) and of combinations of A2, A3, A4 and A5 with Genapol® LRO and sodium lactate, the spray mixtures being prepared as in Example A. The water application rate for the spray application of the preparations was 300 l/ha. After the treatment, the plants were returned to the greenhouse.

Assay [4] relates to Alopecurus myosuroides (ALOMY). The description is as above. Conditions: 28 days after application. The protocol:
as §1, §2, §4

In assay [5] the test system is Avena fatua (AVEFA). The assay is described as above. To be noted: 28 days after application. Here is the method: as §1, §2, §4
In assay [6] the test system is Lolium multiflorum (LOLMU). The description is as above. To be noted: 28 days after application. Here is the method: as §1, §2, §4
Assay [7] concerns Digitaria adscendens (DIGSA). Described as above. To be noted: 28 days after application. The protocol:
as §1, §2, §4

On to `COC(=O)c1ccc(CNS(C)(=O)=O)cc1S(=O)(=O)NC(=O)Nc1nc(OC)cc(OC)n1` [A1, methyl 2-[3-(4,6-dimethoxypyrimidin-2-yl)ureidosulfonyl]4-methanesulfonamido-methylbenzoate], for which the “Action [%] against harmful plants AVEFA” value with Avena fatua (AVEFA) [1] worked out at 10%. Besides, the “Action [%] against harmful plants LOLMU” value in assay [2] turned out to be 10%. Also, in the assay with Bromus tectorum (BROTE), the “Action [%] against harmful plants BROTE” value was found to be 12.5%.

Turning to `CCS(=O)(=O)c1cccnc1S(=O)(=O)NC(=O)Nc1nc(OC)cc(OC)n1` [A2], the “Action [%] against harmful plants ECHCG” value in assay [3] (herbicide 5 g a.i./ha) came out at 10%. In addition, the “Action [%] against harmful plants ALOMY” value in assay [4] (herbicide 5 g a.i./ha) turned out to be 70%. Besides, the “Action [%] against harmful plants AVEFA” value in the assay on Avena fatua (AVEFA) [5] (herbicide 5 g a.i./ha) was 0%. Moreover, in assay [6] (herbicide 5 g a.i./ha), the “Action [%] against harmful plants LOLMU” value stood at 60%. For the same compound, in assay [7] (herbicide 5 g a.i./ha), the “Action [%] against harmful plants DIGSA” value was 30%.

On to `COc1cc(OC)nc(NC(=O)NS(=O)(=O)c2ncccc2C(=O)N(C)C)n1` [A3, 1-(3-N,N-dimethylaminocarbonylpyridin-2-ylsulfonyl)-3-(4,6-dimethoxypyrimidin-2-yl)urea], for which, in assay [3] (herbicide 20 g a.i./ha), the “Action [%] against harmful plants ECHCG” value was determined as 0%. The “Action [%] against harmful plants ALOMY” value in assay [4] (herbicide 20 g a.i./ha) was found to be 0%. In addition, the “Action [%] against harmful plants AVEFA” value in the assay on Avena fatua (AVEFA) [5] (herbicide 20 g a.i./ha) was 0%.

Turning to `COC(=O)c1ccc(I)cc1S(=O)(=O)NC(=O)Nc1nc(C)nc(OC)n1` [A4, 3-(4-methoxy-6-methyl-1,3,5-triazin-2-yl)-1-(2-methoxycarbonyl-5-iodophenyl-sulfonyl)urea], the “Action [%] against harmful plants ECHCG” value in assay [3] (herbicide 20 g a.i./ha) is on record as 70%. Besides, the “Action [%] against harmful plants ALOMY” value in assay [4] (herbicide 20 g a.i./ha) was 50%. The “Action [%] against harmful plants AVEFA” value in the assay on Avena fatua (AVEFA) [5] (herbicide 20 g a.i./ha) turned out to be 60%. Moreover, the “Action [%] against harmful plants LOLMU” value in assay [6] (herbicide 20 g a.i./ha) worked out at 60%. The “Action [%] against harmful plants DIGSA” value in assay [7] (herbicide 20 g a.i./ha) came to 30%.

`COc1cc(OC)nc(NC(=O)NS(=O)(=O)c2cc(NC=O)ccc2C(=O)N(C)C)n1` [A5, N,N-dimethyl-2-[3-(4,6-dimethoxypyrimidin-2-yl)ureidosulfonyl]4-formylamino-benzamide]: the “Action [%] against harmful plants ECHCG” value in assay [3] (herbicide 20 g a.i./ha) came out at 30%. Further, in assay [4] (herbicide 20 g a.i./ha), the “Action [%] against harmful plants ALOMY” value is reported as 70%. Further, in the assay with Avena fatua (AVEFA) [5] (herbicide 20 g a.i./ha), the “Action [%] against harmful plants AVEFA” value is recorded as 60%. The “Action [%] against harmful plants LOLMU” value in assay [6] (herbicide 20 g a.i./ha) is 50%. The “Action [%] against harmful plants DIGSA” value in assay [7] (herbicide 20 g a.i./ha) came out at 0%.
